Data on one molecule can be found in patent publication US20050209104A1, “Dinoflagellate karlotoxins, methods of isolation and uses thereof” (priority 2002, published 2005).

Molecules are shown by their SMILES. Values after ≈ are worked out from the molar mass of the structure shown.

The subject of data set [1] is zebrafish (Danio rerio-60 days old). As to the kind of experiment: Effect of KmTx 2 on fish (mortality and histology). Format: in vivo. The procedure:
Zebrafish (Danio rerio-60 days old) were exposed to 0.1, 0.5, 1, or 2 μg/ml KmTx 2 in 50 ml of aerated reconstituted fresh water (soft) [ASTM, 1992 #125]. Toxin dilutions were made in MeOH (200 μl max. per treatment) and controls were exposed to 200 μl MeOH only. Three fish were exposed per replicate, three replicates per treatment. […] Upon death, fish were preserved in neutral buffered formalin and prepared for histological examination as described in Noga 2000.

Data set [2] has as its system Aspergillus niger (ATCC 1004). As to the kind of experiment: Anti-fungal broth microdilution assay (filamentous fungi). Type of data set: cell-based. On the procedure:
(§1) The following fungal strains were purchased from the American Type Culture Collection (Manassas, Va.), Aspergillus niger (ATCC 1004) as a representative filamentous fungi, and Candida albicans (ATCC 14053) as a representative yeast. Assays were performed according to the following National Committee for Clinical Laboratory Standards documents; M27-A2 Reference Method for Broth Dilution Antifungal Susceptibility Testing of Yeasts; Approved Standard—Second Edition([NCCLS, 2002), and M38-A Reference Method for Broth Dilution Antifungal Susceptibility Testing of Filamentous Fungi; Approved Standard (NCCLS, 2002). Procedures for the broth microdilution modification were followed for both species with the following exceptions; A. niger stocks were maintained on Potato Dextrose Agar at 25° C., while C. albicans was maintained on Yeast Malt Agar at 28° C., both according to ATCC recommendations. Amphotericin B was used as a positive control. Microdilution assays were performed in HyQ-RPMI-1640 media (HyClone, Logan, Utah.), with 2.05 mM L-glutamine, without sodium bicarbonate, pH 7.2 using dilutions of 1 mg/ml DMSO stocks of KmTx 2 and amphotericin B.
(§2) The following concentrations were tested for both KmTx2 and amphotericin B: 0.0625, 0.125, 0.25, 0.5, 1, 2, 4, 8, and 16 μg/ml. A maximum of 1.6% DMSO was added to any given well. Plates were incubated at 25 and 28° C., respectively, for A. niger and C. albicans. […] Amphotericin B and all culture media were purchased from Sigma-Aldrich (St. Louis, Mo.).
(In broth dilution the organism is exposed to a series of concentrations in liquid medium.)

In data set [3] the test system is Candida albicans (ATCC 14053). As to the kind of experiment: Anti-fungal broth microdilution assay (yeast). As to conditions: lowest dose with no growth after 96 hours, 28° C. Type of data set: cell-based. The procedure: as §1, §2
Data set [4] concerns Oxyrrhis marina. As to the kind of experiment: Effect of KmTx 2 on a potential grazer. Format: cell-based. On the procedure: Oxyrrhis marina (1.7×10^4 cells/mil) and K. micrum (CCMP 2282) (3.5×10^4 cells/ml) were exposed, in triplicate, to 0, 0.1, 0.5, and 1 μg/ml KmTx 2 in six well non-tissue culture treated polystyrene plates (Becton Dickinson Labware, Lincoln Park N.J.). The O. marina culture was obtained through single cell isolation from a Chesapeake Bay water sample and was maintained in 15 psu artificial sea water (Instant Ocean Brand) using Rhodomonas sp. (CCMP 767) as a food source. O. marina was starved for 24 hours prior to exposures to reduce the number of food organisms. K. micrum (CCMP 2282) was maintained in 12 psu artificial sea water (Instant Ocean Brand) with f/2 nutrient mixture plus 1% soil extract as described in Deeds et al. (2002). Cell densities were measured at 1 and 24 hours using a Coulter Multisizer II particle counter by enumerating the 7-20 μm and the […] size fractions, respectively, for K. micrum and O. marina using a Coulter Accucomp software package (Coulter Electronics Limited, Miami Fla.). Significant differences (p<0.05) among mean cell numbers for different treatments were tested for using one-way analysis of variance with Scheffe's post hoc test using SPSS Base 10.0 statistical software (SPSS Inc., Chicago, Ill.).
Hemolytic activity remaining in solution was measured at 1 hour by mixing 100 μl of each treatment with an equal volume of diluted rainbow trout RBC suspension as described above in Example 3.

Take `C=C(CC[C@H](O)[C@H]1O[C@H](C[C@@H](O)[C@H](O)[C@H](C)CCC[C@@H](O)[C@H](O)[C@H](O)[C@@H](C)CC[C@@H](O)[C@H](O)[C@H](C)C[C@@H](O)CCC[C@@H](O)CCC[C@@H](O)/C=C/C[C@@H](O)CO)[C@@H](O)[C@@H](O)[C@@H]1O)[C@H](O)[C@H](O)[C@@H]1C[C@H](O)[C@H](O)[C@@H]([C@H](O)[C@@H](O)/C=C/CCCCCCCC/C=C/C=C/Cl)O1` [KmTx 2]: in data set [1] (0.1 μg/ml, 6 hr exposure), the survival entry is on record as “survived the full 6 hr exposure”. Moreover, the “histological examination of gills” value in data set [1] (0.1 μg/ml, 6 hrs) was “loss of secondary structure of gill lamellae and sloughing of gill epithelial tissue”; in data set [1] (0.5 μg/ml) it was “Severe necrosis and degeneration of gill tissue”. Moreover, the “time to death, all fish” value in data set [1] (0.5 μg/ml) was less than 1 h. Also, the “anti-fungal activity, fold lower than for amphotericin B” value in data set [2] (depending on species tested (A. niger, C. albicans)) is 10-100 fold. For the same molecule, the “Minimal inhibitory concentration (MIC)” value is 8 µg/mL (≈ 5.94 µM) in data set [2] (lowest dose with no growth after 96 hours, 25° C.) and 16 µg/mL (≈ 11.9 µM) in data set [3]. The “reduction of O. marina cell densities” value in data set [4] (1 μg/ml, after 24 hours) is more than 90%. The “cell lysis of O. marina” value in data set [4] (0.5 and 1 μg/ml treatments at 1 hour) is recorded as “significant (P<0.05) cell lysis”. Further, the “hemolytic activity remaining in solution” value in data set [4] (after 1 hour, all KmTx 2 concentrations, O. marina compared to K. micrum exposed cultures) was “reduced”.
